Laboratory results reported in patent US12433908B2, “Use of nicotinamide riboside, nicotinic acid riboside, and nicotinamide mononucleotide, reduced nicotinyl compounds, and nicotinoyl compound derivatives in infant formula for healthy development” (ChromaDex, Inc., priority 2016, dated 2025).
Entries after “also recorded” stand apart in the source; their conditions may differ.

Columns and labels:
[1] = Fecal SCFA analysis by gas chromatography in piglets given NR solution; format: in vivo, piglets (Yorkshire/Hampshire crossbred)
Source text: Sixteen (n=16) Yorkshire/Hampshire crossbred piglets were obtained from the University of California, Davis Swine Teaching and Research Center and received on lactation day (“LD”) 14. Prior to arrive, the piglets were processed by the suppler between 1-3 days of age by administration of iron and an antibiotic ([…] for swine) as is common practice at the University of California, Davis Swine Facility. It is not common practice at the University of California, Davis Swine Facility to give a second dose of iron and antibiotics unless it becomes necessary. The piglets were from two litters (litters 15 and 17), weaned at 17 days of age, and randomly placed into one of two groups balanced for litter, sex, and weight. The animals were not acclimated to the facility at arrival and were subsequently acclimated to the test diet administration system. The piglets were weaned into a temperature-controlled room (approximately 27-29° C.) that contained 10 adjacent pens. The piglets were group-housed in the nursery room at the Swine Facility, which is an enclosed room with access restricted to trained personnel. The two groups were separated by one pen containing piglets of similar age. Each morning enough nicotinamide riboside (NR, I) in water solution was prepared for that day's dose administration according to the dose preparation protocol. At least 5 mL of prepared dose was reserved and immediately frozen after preparation each day for analysis of nicotinamide riboside (NR, I) for the purpose of confirming stability of the dose material. The doses were stored at refrigeration temperature while not in use. Nicotinamide riboside (NR, I) was dosed once per day in the morning and at the same time each day. Piglets in the control group received the same volume of plain water and were dosed on the same schedule. Starting on Day 1, animals in the nicotinamide riboside (NR, I) group were dosed once daily (in the morning) with 277 mg nicotinamide riboside (NR, I) per pig resuspended in water for seven days. After one week, animals were dosed once daily with 342 mg nicotinamide riboside (NR, I) per pig delivered in 2.5 mL for seven days. For Days 1 and 2, the nicotinamide riboside (NR, I) solution was prepared by resuspending 2770 mg nicotinamide riboside (NR, I) in 50 mL water, and 5 mL of this solution was delivered to each pig by squirting it into the back of the mouth using a 10 mL syringe with a piece of tubing attached to the end. To reduce the volume to more efficiently deliver the nicotinamide riboside (NR, I) solution, the 2770 mg was resuspended in 25 mL water and 2.5 mL of the solution was squirted into the back of the mouth of each pig using a 3 mL syringe for Days 3-7. For Days 8-14, 3420 mg nicotinamide riboside (NR, I) was resuspended in 25 mL water and 2.5 mL of this solution was delivered to each pig. Each day prior to dosing, 2.5 mL of the nicotinamide riboside (NR, I) (5 mL on Days 1 and 2) were placed into a separate tube and frozen. Fresh fecal samples were collected from each pig on Days 1 (baseline), 8 (Wk 1), and 14 (Wk 2), and frozen. When a freshly voided sample could not be obtained, the rectum was swabbed. A total of 100 mg of feces from each pig was used for SCFA analysis using gas chromatography with known standards for acetic acid, propionic acid, isobutyric acid, butyric acid, isovaleric acid, and valeric acid. Samples were extracted with 25% metaphosphoric acid and each extraction run in triplicate on a GC equipped with the PeakSimple Chromatography Data System. Data was analyzed using a one-way ANoVA or the non-parametric Kruskal-Wallis test if the distribution of values was not Gaussian. A conservative analysis of the data is presented below (animals that had to be swabbed to get a fecal sample) in Table 3 and an analysis of the data including the swab samples is in Table 8. The trends are similar, the p-values are not.

[2] = mice on a high-fat diet supplemented with NR; cited from earlier work
[3] = Stability of NR in liquid (water, milk); format: physicochemical
milk proteins = test: WaterLOGSY NMR direct binding of 15N-labeled NR to milk proteins; details: increasing additions of milk
Source text: Whey protein fraction and casein protein have been identified as leading candidates to bind directly to and stabilize nicotinamide riboside (NR, I) in milk. The addition of these proteins in particular (either alone or in combination with other proteins) in order to stabilize nicotinamide riboside (NR, I) in liquid constitutes another embodiment of a method of delivery of the present invention. […] In this experiment, Water-Ligand Observed via Gradient Spectroscopy (WaterLOGSY NMR) was used to detect direct binding of stable, isotope-labeled (^15N) nicotinamide riboside (NR, I) to milk proteins. This is visualized as a concentration-dependent shift in the nicotinamide riboside (NR, I) spectra with increasing additions of milk. The concentric shapes shifts from left to right are the results of addition of no milk, 150 mL of milk, and […] of milk, respectively.

[4] = 1 week of daily administration of 277 mg of NR in water
[5] = Wk 1, 277 mg/pig once daily oral
[6] = including the swab samples, Baseline, before dosing
[7] = including the swab samples, Wk 1, 277 mg/pig once daily oral
[8] = including the swab samples, third column group, headed 'Wk 1' again
[9] = without swab samples, Baseline, before dosing
[10] = without swab samples, Wk 1, 277 mg/pig once daily oral
[11] = without swab samples, third column group, headed 'Wk 1' again

NC(=O)c1ccc[n+]([C@@H]2O[C@H](CO)[C@@H](O)[C@H]2O)c1 [NR, Nicotinamide riboside]
Fecal SCFA levels [1, 4]: increased | fecal acetic acid (C2), propionic acid (C3), and butyric acid (C4) [1, 4]: marked increases | Fecal SCFA Acetic Acid, Δ vs. baseline (NR) [1, 5]: 15.1 ppm | Fecal SCFA Butyric Acid, Δ vs. baseline (NR) [1, 5]: 26.3 ppm | Fecal SCFA Isobutyric Acid, Δ vs. baseline (NR) [1, 5]: −3.4 ppm | Fecal SCFA Isovaleric Acid, Δ vs. baseline (NR) [1, 5]: −4.3 ppm | Fecal SCFA Propionic Acid, Δ vs. baseline (NR) [1, 5]: 35.9 ppm | Fecal SCFA Valeric Acid, Δ vs. baseline (NR) [1, 5]: 5.4 ppm | Fecal SCFA Acetic Acid, Significant change from baseline within group ([1]; Wk 1 vs. baseline): No | Fecal SCFA Butyric Acid, Significant change from baseline within group ([1]; Wk 1 vs. baseline): statistically significant; also recorded: Yes, P < 0.05 | Fecal SCFA Isobutyric Acid, Significant change from baseline within group ([1]; Wk 1 vs. baseline): No | Fecal SCFA Isovaleric Acid, Significant change from baseline within group ([1]; Wk 1 vs. baseline): No | Fecal SCFA Propionic Acid, Significant change from baseline within group ([1]; Wk 1 vs. baseline): statistically significant; also recorded: Yes, P < 0.05 | Fecal SCFA Valeric Acid, Significant change from baseline within group ([1]; Wk 1 vs. baseline): No | Fecal SCFA Isobutyric Acid ([1]; including the swab samples): 7.9 ± 10.9 ppm | Fecal SCFA Propionic Acid ([1]; including the swab samples): 51.5 ± 45.7 ppm | Fecal SCFA Valeric Acid ([1]; including the swab samples): 7.8 ± 11.3 ppm | Fecal SCFA Acetic Acid [1, 6]: 43.5 ± 23.5 ppm | Fecal SCFA Butyric Acid [1, 6]: 11.1 ± 18.4 ppm | Fecal SCFA Isobutyric Acid [1, 6]: 9.5 ± 9.3 ppm | Fecal SCFA Isovaleric Acid [1, 6]: 16.8 ± 14.0 ppm | Fecal SCFA Propionic Acid [1, 6]: 15.3 ± 10.6 ppm | Fecal SCFA Valeric Acid [1, 6]: 2.4 ± 6.9 ppm | Fecal SCFA Acetic Acid [1, 7]: 58.6 ± 14.5 ppm | Fecal SCFA Butyric Acid [1, 7]: 37.4 ± 16.8 ppm | Fecal SCFA Isobutyric Acid [1, 7]: 6.1 ± 6.4 ppm | Fecal SCFA Isovaleric Acid [1, 7]: 12.5 ± 9.1 ppm | Fecal SCFA Propionic Acid [1, 7]: 51.2 ± 13.2 ppm | Fecal SCFA Valeric Acid [1, 7]: 7.8 ± 6.6 ppm | Fecal SCFA Acetic Acid [1, 8]: 70.1 ± 62.6 ppm | Fecal SCFA Butyric Acid [1, 8]: 41.2 ± 34.6 ppm | Fecal SCFA Isovaleric Acid [1, 8]: 11.3 ± 15.7 ppm | Fecal SCFA Isobutyric Acid ([1]; without swab samples): 15.9 ± 10.6 ppm | Fecal SCFA Propionic Acid ([1]; without swab samples): 90.0 ± 30.4 ppm | Fecal SCFA Valeric Acid ([1]; without swab samples): 15.7 ± 11.5 ppm | Fecal SCFA Acetic Acid [1, 9]: 43.5 ± 23.5 ppm | Fecal SCFA Butyric Acid [1, 9]: 11.1 ± 18.4 ppm | Fecal SCFA Isobutyric Acid [1, 9]: 9.5 ± 9.3 ppm | Fecal SCFA Isovaleric Acid [1, 9]: 16.8 ± 14.0 ppm | Fecal SCFA Propionic Acid [1, 9]: 15.3 ± 10.6 ppm | Fecal SCFA Valeric Acid [1, 9]: 2.4 ± 6.9 ppm | Fecal SCFA Acetic Acid [1, 10]: 55.78 ± 13.4 ppm | Fecal SCFA Butyric Acid [1, 10]: 36.9 ± 18.3 ppm | Fecal SCFA Isobutyric Acid [1, 10]: 5.8 ± 6.5 ppm | Fecal SCFA Isovaleric Acid [1, 10]: 11.9 ± 9.8 ppm | Fecal SCFA Propionic Acid [1, 10]: 49.3 ± 13.3 ppm | Fecal SCFA Valeric Acid [1, 10]: 6.7 ± 6.7 ppm | Fecal SCFA Acetic Acid [1, 11]: 118.7 ± 55.01 ppm | Fecal SCFA Butyric Acid [1, 11]: 70.8 ± 21.9 ppm | Fecal SCFA Isovaleric Acid [1, 11]: 22.5 ± 15.5 ppm | less weight gained on a high-fat diet [2]: 40% | stability in milk ([3]; cow's milk and human breast milk): stable in milk | stability in water ([3]; in water): unstable over time | direct binding to milk proteins (milk proteins): binds to proteins in milk
